Data: paper PMC7070167, “Cell‐permeable high‐affinity tracers for Gq proteins provide structural insights, reveal distinct binding kinetics and identify small molecule inhibitors” (British Journal of Pharmacology, 2020)
pIC50: −log10 of the molar value. Read-outs that look alike come from different tables or passages of the source. *1 amine or outer side, *2 acyl side, *3 side chain or, on linkers, in order; H or OH if unused. Where a SMILES comes first, the peptide text is derived from it. Bridges are numbered along the chain shown (N, C = ends). [ ]: non-standard residue; d: D form. The star is where a group is joined. Leu(3R-O(AcLeu(3R-OH))) = CC(=O)N[C@H](C(=O)O[C@H](C(C)C)[C@H](N)C(=O)O)[C@H](O)C(C)C; Leu(3R-OH,Nα-propionyl) = CCC(=O)N[C@H](C(=O)*)[C@H](O)C(C)C; X1 = CC(C)[C@@H](O[*:3])[C@H](N[*:1])C(=O)[*:2]; NMeT = CN[C@H](C(=O)O)[C@@H](C)O; dPhLac = O=C(O)[C@H](O)Cc1ccccc1; NMeA = CN[C@@H](C)C(=O)O; NMeDha = C=C(NC)C(=O)O

Tests used:
mouse Gαq = target: T1, mouse Gαq (Mus musculus, UniProt P21279, D130A/E125D/N126V/V129Y/Y128D); test: Competition binding at membranes of HEK-CRISPR-Cas9-Gαq-KO cells expressing Gαq
T1 construct: expressed in transfected cells; membrane preparations
T1 sequence (P21279 1-359 E125D/N126V/Y128D/V129Y/D130A): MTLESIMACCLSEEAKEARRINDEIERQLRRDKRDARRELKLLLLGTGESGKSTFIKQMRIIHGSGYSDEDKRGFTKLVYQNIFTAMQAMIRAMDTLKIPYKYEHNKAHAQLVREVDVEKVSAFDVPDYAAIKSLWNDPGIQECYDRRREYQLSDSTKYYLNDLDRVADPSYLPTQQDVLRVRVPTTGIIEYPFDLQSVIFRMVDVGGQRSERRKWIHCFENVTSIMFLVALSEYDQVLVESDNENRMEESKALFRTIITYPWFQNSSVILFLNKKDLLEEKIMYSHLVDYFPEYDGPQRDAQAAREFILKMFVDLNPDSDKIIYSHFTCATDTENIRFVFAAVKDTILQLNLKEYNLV
Method: (§1) cDNAs encoding for the α‐subunits of the human G11, G14, G15 and mouse Gq guanine nucleotide‐binding proteins in a pcDNA3.1(+) vector were obtained from E. Kostenis. CRISPR/Cas9‐Gαq‐knockout (KO) HEK293 cells were from M. Yamaguchi. The protein sequences of the human and mouse Gαq proteins differ only by one amino acid in position 171 (alanine in human and serine in mouse). […]. After 16 hr, 3 ml of DMEM containing 10% FBS, 1% of a penicillin/streptomycin solution (final concentrations: penicillin = 100 U·ml^−1, streptomycin = 0.1 mg·ml^−1), and sodium butyrate (5 mM) was added to the packaging cells. They were kept at 32°C and 5% CO2 for 48 hr, during which the viral vectors containing the receptor sequence were produced and released into the surrounding medium. These were harvested, filtered ([…] filter pore diameter), and added to HEK293 cells that had previously been modified via CRISPR/Cas9 genome editing to lack Gαq expression. Polybrene solution (6 μl, 4 mg·ml^−1 in H2O, filtered) was added. After 2.5 hr, the virus‐containing medium was discarded, and DMEM supplemented with 10% FBS and 1% of a penicillin/streptomycin solution (final concentrations: penicillin = 100 U·ml^−1, streptomycin = 0.1 mg·ml^−1) was given to the cells. These were incubated for 2 days, followed by selection of successfully transfected cells with geneticin resistance by adding G418 (200 μg·ml^−1) to the medium. The cells were cultured in these media at 37°C and 10% CO2 until membrane preparations were generated.
(§2) Recombinant HEK cells were cultured to 70% of confluence. The culture medium was discarded, and cells were washed once with approximately 5 ml of PBS. Dishes were stored at −20°C until further use. After defrosting, cells were detached with a rubber scraper after adding 5‐mM Tris–HCl, 2‐mM EDTA, pH 7.4. The collected cell suspension was homogenized using an Ultra‐Turrax® for 1 min at a speed level of 4. The cell suspension was transferred into tubes and centrifuged for 10 min at 1,000 g, 4°C. The pellet (P1) was discarded, and the supernatant was centrifuged for 45 min at 48,400 g, 4°C. The resulting supernatant was discarded, and the pellet (P2) was resuspended in 50‐mM Tris–HCl, pH 7.4, and centrifuged again for 45 min at 48,400 g, 4°C. This step was repeated once again, and the suspension was subsequently homogenized using an Ultra‐Turrax® for 1 min at a speed level of 4 (IKA Laborechnik), transferred into cryovials, and stored at −80°C (for up to several months). […]
(§3) The experiments were performed in 50‐mM Tris–HCl buffer, pH 7.4. […] Non‐specific binding was determined in the presence of 5‐μM FR. […] Luma Safe® scintillation cocktail (2.5 ml) was added, and after 6 hr of incubation, the samples were counted for 1 min each, using a liquid scintillation counter (counting efficiency 53%). […]

human Gα11 = target: T2, human Gα11 (Homo sapiens, UniProt P29992); test: Competition binding at membranes of HEK-CRISPR-Cas9-Gαq-KO cells expressing Gα11
T2 construct: expressed in transfected cells; membrane preparations
T2 sequence (P29992 1-359): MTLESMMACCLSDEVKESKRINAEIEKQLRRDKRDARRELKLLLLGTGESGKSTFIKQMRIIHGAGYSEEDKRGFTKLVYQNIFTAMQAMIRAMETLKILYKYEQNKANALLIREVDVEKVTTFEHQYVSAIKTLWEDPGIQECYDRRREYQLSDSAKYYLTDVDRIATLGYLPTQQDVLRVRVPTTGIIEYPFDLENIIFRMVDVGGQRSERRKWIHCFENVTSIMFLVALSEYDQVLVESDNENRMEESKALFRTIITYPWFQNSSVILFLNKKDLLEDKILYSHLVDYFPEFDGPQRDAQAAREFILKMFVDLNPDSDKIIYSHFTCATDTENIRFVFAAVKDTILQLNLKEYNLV
Method: as §1, §2, §3

[1] = test system: Gq signalling via recombinantly expressed human P2Y1 receptor; test: Calcium mobilization assay, ADP-induced (P2Y1 receptor) in 1321N1 astrocytoma cells; assay type: cell-based; settings: Homo sapiens; versus ADP (EC80), P2Y1 receptor, 1321N1 astrocytoma cells; read-out: pIC50, inhibition of calcium mobilization (converted)
Method: The functional activity of YM, FR, and Ebselen as Gq protein inhibitors was determined by assessing their ability to antagonize ADP‐induced calcium mobilization in 1321N1 astrocytoma cells stably transfected with the human P2Y1 receptor, which is a Gq‐coupled receptor. In addition, the compounds' inhibitory effects on Carbachol‐induced calcium mobilization were studied in the same cell line, which endogenously express the Gq‐coupled muscarinic M3 ACh receptor. The assays were performed according to a previously described procedure (Rafehi et al., 2017) using a NOVOstar microplate reader (BMG Labtech, Offenburg, Germany).

With `C=C1C(=O)N[C@@H](C)C(=O)N(C)[C@@H](C)C(=O)N[C@@H]([C@H](OC(=O)[C@@H](NC(=O)CC)[C@H](O)C(C)C)C(C)C)C(=O)N(C)[C@@H]([C@@H](C)OC)C(=O)O[C@H](C(C)C)[C@H](NC(C)=O)C(=O)O[C@H](Cc2ccccc2)C(=O)N1C` [FR, FR900359] (Ac-[X1][dPhLac][NMeDha]A[NMeA][X1](Leu(3R-OH,Nα-propionyl))[NMeT](Me); ester 1-C) the pIC50 (mouse Gαq) was 7.88, the “Pseudo-Bmax ± SD” value (mouse Gαq; FR versus [³H]PSB-15900 (5 nM), 37°C, Gq) was 6.09 ± 0.59 pmol/mg and the pIC50 (human Gα11) was 7.98. For the same molecule, the “Pseudo-Bmax ± SD” value (human Gα11; FR versus [³H]PSB-15900 (5 nM), 37°C, G11) was 6.23 ± 1.39 pmol/mg and the IC50 [1] was 0.692 nM.

With `C=C1C(=O)N[C@@H](C)C(=O)N(C)[C@@H](C)C(=O)N[C@@H]([C@H](OC(=O)[C@@H](NC(C)=O)[C@H](O)C(C)C)C(C)C)C(=O)N(C)[C@@H]([C@@H](C)OC)C(=O)O[C@H](C)[C@H](NC(C)=O)C(=O)O[C@H](Cc2ccccc2)C(=O)N1C` [YM, YM‐254890] (Ac-T[dPhLac][NMeDha]A[NMeA][Leu(3R-O(AcLeu(3R-OH)))][NMeT](Me); ester 1-C) the “Pseudo-Bmax ± SD” value (mouse Gαq; YM versus [³H]PSB-16254 (5 nM), 37°C, Gq) was 6.04 ± 1.43 pmol/mg, the IC50 (mouse Gαq; YM versus [³H]PSB-16254 (5 nM), 37°C, Gq, read-out: pIC50 ± SD (converted)) was 6.17 nM and the “Pseudo-Bmax ± SD” value (human Gα11; YM versus [³H]PSB-16254 (5 nM), 37°C, G11) was 6.23 ± 2.92 pmol/mg. It also gave an IC50 (human Gα11; YM versus [³H]PSB-16254 (5 nM), 37°C, G11, read-out: pIC50 ± SD (converted)) of 8.71 nM and an IC50 [1] of 0.955 nM.
